{"source": "patent US20250000998A1", "about": "“MEDICAMENT FOR KILLING TUMOR CELLS” (PhotoQ3 Inc., priority 2021, published 2025)", "test_system": "A549 (human lung cancer cell) xenograft", "assay": "Tumor regression effect in tumor-bearing mice by iTAP treatment (A549 cell line xenograft mouse)", "assay_type": "in vivo, BALB/c Slc-nu/nu mice", "settings": "Laserphyrin 5 mg/kg with 664 nm laser light 30 J/cm^2, IT-Cetuximab 3 mg/kg, alone or combined", "protocol": "Separately cultured A549 cells were adjusted to 1×10^7 cells/100 μL, and the cells were subcutaneously administered (SC) to the right thigh of 7-week-old male BALB/c Slc-nu/nu mice, and xenograft mice (tumor-bearing mice) were produced. Tumor size was calculated using the following formula.\nTumor volume (mm^3)=major axis (mm)×minor axis (mm)×minor axis (mm)×0.5\nWhen the tumor size of the mice reached an average size of approximately 150 mm^3, the mice were randomly divided into the following groups (n=3). • Condition (1) Control group: No administration • Condition (2) Laserphyrin (5 mg/kg) administration and 664 nm laser light (30 J/cm^2) • irradiation group • Condition (3) IT-Cetuximab (3 mg/kg) administration group • Condition (4) Laserphyrin (5 mg/kg), IT-Cetuximab (3 mg/kg) administration and 664 nm laser light (30 J/cm^2) irradiation group\nIT-Cetuximab was administered intraperitoneally to mice, and 2 days later, Laserphyrin was administered through the tail vein. Furthermore, 2 hours after the administration of Laserphyrin, the tumor site was locally irradiated with a 664 nm laser light.\nTumor size was measured every 3 to 5 days after administration.", "data": [{"smiles": "C=Cc1c(C)c2cc3nc(c(CC(=O)N[C@@H](CC(=O)O)C(=O)O)c4[nH]c(cc5nc(cc1[nH]2)C(C)=C5CC)c(C)c4C(=O)O)[C@@H](CCC(=O)O)[C@@H]3C", "note": "[Laserphyrin, Talaporfin Sodium]", "values": [{"measurement": "macroscopic observation of the tumor", "result": "tumor growth was confirmed macroscopically"}]}]}
